Values joined by “and” are separate entries in the source; they are usually repeats but may differ in a detail not shown here. Equal entries are not always repeated.
What was measured:
Hyaluronic Acid (HA) = assay: Hyaluronic acid secretion in coculture of human aged fibroblasts and mature adipocytes (ELISA); type: cell-based; conditions: for secretion of HA, normalized by fibroblasts number, in percentage of the coculture control condition, Values (%): individual replicates
Excerpt: In order to evaluate its effect on fibroblast matrix and its anti-inflammatory properties, the effect of compound 6 has been tested on an adipocytes-aged fibroblasts coculture model, mimicking the interactions between dermis and hypodermis in the skin and allowed to explore in parallel the biological effects of the products on two cellular targets.
• Experimental model: co-culture of human mature adipocytes cultured in 3D and human dermal fibroblasts cultured in 2D (AM3D-FB2D co-culture). This experimental model of AM3D-FB2D co-culture mimicked the interactions between dermis and hypodermis in the skin and allowed to explore in parallel the biological effects of the products on two cellular targets. • Donor characteristics: This study was performed on mature adipocytes and fibroblasts from two different donors (one donor for mature adipocytes and another donor for dermal fibroblasts). • Fibroblasts donor=person, BMI=28 kg/m^2 • Adipocytes donor=person, BMI=21.4 kg/m^2 • Treatment procedure: compound 6 was added to the co-culture medium daily for up to 6 days
Dermal fibroblasts were seeded in DMEM 10% FBS at 10000 cells/well. The day after, the adipocytes capsules of 50 μl were added in suspension above the fibroblasts and the medium was changed and replaced by a specific culture medium for the co-culture AM3D-FB2D. The formation of adipocytes capsules followed an internal standardized protocol. Briefly, the fully mature adipocytes were isolated from the hypodermis after digestion by collagenase. The isolated adipocytes were then washed with a wash buffer and encapsulated in a peptidic hydrogel to form 3D adipocytes capsules of 50 μl in size. Cells were incubated at 37° C. and 5% CO2 overnight for stabilization. Treatments were initiated at DO with a medium change at DO, D2, D3 and D5. The entire culture media of 24 h incubation was collected at D3 and D6, before being centrifugated and stored at −80° C. Each culture condition was done in triplicate.
The biochemical analyses on culture media were performed via ELISA using specific kits according to the manufacturer's recommendations: IL-6 (Duoset DY206, R&D Systems), and Hyaluronic Acid (HA) (Duoset, DY3614-05, R&D Systems and Procollagen I (Duoset, DY6220-05, R&D Systems) The results of HA and Procollagen I were normalized by fibroblasts cell number regarding the fact that these molecules were secreted mainly by fibroblasts. All the biochemical results were represented in percentage of the control condition.
To evaluate the effect of the compound 6 on fibroblast's matrix, the extracellular concentrations of Hyaluronic Acid (HA), that is secreted only by the fibroblasts, were measured at D3 and D6.

human preadipocytes = assay: Proliferation of preadipocytes in inflammatory condition (DAPI nuclei staining); type: cell-based; conditions: for Cells number at the end of the culture (DAPI staining), Values: individual values; for Cell number (DAPI staining): preadipocytes, inflammatory conditions (AcMC), AcMC control 12 819 AU
Description: (§1) Preadipocytes have been isolated from human female hypodermis (body mass index <30 kg/m2 and <45 years old). Preadipocytes have been cultured for 24 h in 100 μl of DMEM-10% Fetal Bovine Serum (FBS) in 96-well plates. Then cells were treated to induce their differentiation in a classical or an inflammatory environment for 13 days.
(§2) To induce the preadipocytes differentiation cells were incubated in a proadipogenic cocktail (PAC) including insulin, glucocorticoid, 3-isobutyl-1-methylxanthine (IBMX), and thiazolinedione in DMEM.
(§3) To induce a fibro-inflammatory environment, cells were treated with an activated human macrophage-conditioned medium (AcMC) prepared in RPMI medium. A treatment with Dexamethasone (DXM) at 100 nM was used as anti-inflammatory response control. At D0: preadipocytes have been treated in the following conditions: • “Undifferentiation”: DMEM+¼ RPMI medium • “Differentiation”: PAC+¼ RPMI medium • “AcMC” i.e. inflammatory condition: PAC+¼ AcMC • “AcMC+DXM”: PAC+[…] AcMC+anti-inflammatory DXM at 100 nM • “AcMc+compounds”: PAC+14 AcMC+compounds to be tested
(§4) All conditions have been performed in triplicate. The medium has been changed every 2 days for 13 days.
The number of cells was determined for each condition by DAPI nuclei staining (nuclei) and expressed in arbitrary unit.

MCP1 = assay: Extracellular secretion of MCP1 by preadipocytes in inflammatory condition (ELISA); type: cell-based, human; conditions: for MCP1 secretion, Mean (%) / MCP1 secretion, Values (%): inflammatory condition, normalized by cells number (Dapi); for MCP1 secretion, Values (%): individual values; for MCP1 secretion compared to the AcMC control condition fixed at 100%: differentiated preadipocytes
Description: as §1, §2, §3, §4
At D14: during the last 24 h of culture, the medium has been replaced by DMEM/F12 medium in all conditions, to collect cells' secretions.
After 13 days, the 24 h culture media of the different conditions have been collected at the end of the treatment period. The concentrations of IL-6, procollagen I and MCP1 have been evaluated by ELISA assays using specific kits (for IL-6: DY206, DuoSet ELISA, R&D Systems; for Procollagen I: DY6220-05, DuoSet ELISA, R&D Systems; for MCP1: DY279-05 DuoSet ELISA, R&D Systems) according to the manufacture's recommendations. Values have been normalized to the cell number determined by DAPI staining.
Quantity of MCP1 secreted in medium was measured and was normalized by cell number in each culture condition. Data are represented in percentage of proinflammatory control condition (AcMC condition).

N[C@H]1CCCN(CC(F)(F)[C@]2(O)O[C@H](CO)[C@H](O)[C@H](O)[C@H]2O)C1=O [Compound 6]
HA secretion, normalized by fibroblasts number, % of the control (Hyaluronic Acid (HA); 1 mg/ml, 3 days of treatment): 140%
HA secretion, normalized by fibroblasts number, % of the control (Hyaluronic Acid (HA); 1 mg/ml, 6 days of treatment): 189%
HA secretion, normalized by fibroblasts number, % of the control (Hyaluronic Acid (HA); 2 mg/ml, 6 days of treatment): 225%
HA secretion, normalized by fibroblasts number, % of the control (Hyaluronic Acid (HA); 3 mg/ml, 6 days of treatment): 164%
secretion of HA, normalized by fibroblasts number, in percentage of the coculture control condition, Mean (%) (Hyaluronic Acid (HA); D3, 1 mg/ml): 140%
secretion of HA, normalized by fibroblasts number, in percentage of the coculture control condition, Values (%) (Hyaluronic Acid (HA); D3, 1 mg/ml): 127% and 123% and 169%
secretion of HA, normalized by fibroblasts number, in percentage of the coculture control condition, Mean (%) (Hyaluronic Acid (HA); D3, 2 mg/ml): 90%
secretion of HA, normalized by fibroblasts number, in percentage of the coculture control condition, Values (%) (Hyaluronic Acid (HA); D3, 2 mg/ml): 96% and 93% and 80%
secretion of HA, normalized by fibroblasts number, in percentage of the coculture control condition, Mean (%) (Hyaluronic Acid (HA); D3, 3 mg/ml): 85%
secretion of HA, normalized by fibroblasts number, in percentage of the coculture control condition, Values (%) (Hyaluronic Acid (HA); D3, 3 mg/ml): 83% and 75% and 98%
secretion of HA, normalized by fibroblasts number, in percentage of the coculture control condition, Mean (%) (Hyaluronic Acid (HA); D6, 1 mg/ml): 189%
secretion of HA, normalized by fibroblasts number, in percentage of the coculture control condition, Values (%) (Hyaluronic Acid (HA); D6, 1 mg/ml): 172% and 157% and 237%
secretion of HA, normalized by fibroblasts number, in percentage of the coculture control condition, Mean (%) (Hyaluronic Acid (HA); D6, 2 mg/ml): 225%
secretion of HA, normalized by fibroblasts number, in percentage of the coculture control condition, Values (%) (Hyaluronic Acid (HA); D6, 2 mg/ml): 240% and 233% and 203%
secretion of HA, normalized by fibroblasts number, in percentage of the coculture control condition, Mean (%) (Hyaluronic Acid (HA); D6, 3 mg/ml): 164%
secretion of HA, normalized by fibroblasts number, in percentage of the coculture control condition, Values (%) (Hyaluronic Acid (HA); D6, 3 mg/ml): 121% and 213% and 159%
Cells number at the end of the culture, DAPI staining, Mean (human preadipocytes; AcMC + 1 mg/ml): 18154 AU
Cells number at the end of the culture (DAPI staining), Values (human preadipocytes; AcMC + 1 mg/ml): 18502 AU and 17976 AU and 17985 AU
Cells number at the end of the culture, DAPI staining, Mean (human preadipocytes; AcMC + 2 mg/ml): 20147 AU
Cells number at the end of the culture (DAPI staining), Values (human preadipocytes; AcMC + 2 mg/ml): 20261 AU and 20369 AU and 19811 AU
Cell number (DAPI staining) (human preadipocytes; 1 mg/ml): 18 154 AU
Cell number (DAPI staining) (human preadipocytes; 2 mg/ml): 20 147 AU
MCP1 secretion, Mean (%) (MCP1; 1 mg/ml): 71 % of AcMC condition
MCP1 secretion, Values (%) (MCP1; 1 mg/ml): 58.8 % of AcMC condition and 67.5 % of AcMC condition and 85.6 % of AcMC condition
MCP1 secretion, Mean (%) (MCP1; 2 mg/ml): 65 % of AcMC condition
MCP1 secretion, Values (%) (MCP1; 2 mg/ml): 62.8 % of AcMC condition and 65.6 % of AcMC condition and 67.5 % of AcMC condition
MCP1 secretion compared to the AcMC control condition fixed at 100% (MCP1; 1 mg/ml): 71%
MCP1 secretion compared to the AcMC control condition fixed at 100% (MCP1; 2 mg/ml): 65%
